Patent US11427550B2, “5-fluorouracil compounds” (NUCORION PHARMACEUTICALS, INC., priority 2018, dated 2022)
Read-outs that look alike come from different tables or passages of the source.

Assay: Tissue distribution following oral administration of reference compounds and the disclosed compounds
Format: in vivo, rats
Details: rat
Protocol: The liver specificity of the disclosed compounds is compared relative to a corresponding active compound in liver and other organs that could be targets of toxicity.
Reference compounds and the cyclic deoxyribonucleotide, acetal, and hemiaminal compounds are administered at 5-50 mg/kg to fasted rats by oral gavage. Plasma concentrations of the metabolites, and parent compounds in circulation and in the hepatic portal vein are determined by HPLC-UV, and the liver, small intestine, and other organ concentrations are measured by LC-MS using the standard chromatography method.

[1] = drug level in the blood 1 hour after oral administration at 5 mg/kg dose in rats (Table 1), read-out: Drugblood
[2] = drug level in the liver 1 hour after oral administration at 5 mg/kg dose in rats (Table 1), read-out: Drugliver
[3] = prodrug level in the blood 1 hour after oral administration at 5 mg/kg dose in rats (Table 2), read-out: Drugblood
[4] = prodrug level in the liver 1 hour after oral administration at 5 mg/kg dose in rats (Table 2), read-out: Drugliver

Row | concentration at 1 h [1] [ng/mL] | concentration at 1 h [2] [ng/g] | concentration at 1 h [3] [ng/mL] | concentration at 1 h [4] [ng/g] | SMILES
1 |  |  | 158 | 2560 | CCCCCCCCOP1(=O)OC[C@H]2O[C@@H](n3cc(F)c(=O)[nH]c3=O)C[C@@H]2O1 (stereo partly drawn) [Compound 202, 5-Fluoro-1-((4aR,6R,7aS)-2-(octyloxy)-2-oxidotetrahydro-4H-furo[3,2-d][1,3,2]dioxaphosphinin-6-yl)pyrimidine-2,4(1H,3H)-dione]
2 |  |  | 29.4 | 429 | O=c1[nH]c(=O)n([C@H]2C[C@@H]3OP(=O)(OCCCC4CCCC4)OC[C@H]3O2)cc1F (stereo partly drawn) [Compound 207, 5-Fluoro-1-((4aR,6R,7aS)-2-(3-cyclopentylpropyloxy)-2-oxidotetrahydro-4H-furo[3,2-d][1,3,2]dioxaphosphinin-6-yl)pyrimidine-2,4(1H,3H)-dione]
3 |  |  | 21.7 | 255 | O=c1[nH]c(=O)n([C@H]2C[C@@H]3OP(=O)(OCC4(c5ccccc5)CC4)OC[C@H]3O2)cc1F (stereo partly drawn) [Compound 217, 5-Fluoro-1-((4aR,6R,7aS)-2-oxido-2-((1-phenylcyclopropyl)methoxy)tetrahydro-4H-furo[3,2-d][1,3,2]dioxaphosphinin-6-yl)pyrimidine-2,4(1H,3H)-dione]
4 |  |  | 20 | 49.9 | O=c1[nH]c(=O)n([C@H]2C[C@@H]3OP(=O)(OCc4ccc(F)cc4C4OCCO4)OC[C@H]3O2)cc1F (stereo partly drawn) [Compound 219, 1-((4aR,6R,7aS)-2-((2-(1,3-Dioxolan-2-yl)-4-fluorobenzyl)oxy)-2-oxidotetrahydro-4H-furo[3,2-d][1,3,2]dioxaphosphinin-6-yl)-5-fluoropyrimidine-2,4(1H,3H)-dione]
5 |  |  | 122 | 944 | O=c1[nH]c(=O)n([C@H]2C[C@@H]3OP(=O)(OCCCc4ccccc4)OC[C@H]3O2)cc1F (stereo partly drawn) [Compound 220, 5-Fluoro-1-((4aR,6R,7aS)-2-(3-phenylpropyloxy)-2-oxidotetrahydro-4H-furo[3,2-d][1,3,2]dioxaphosphinin-6-yl)pyrimidine-2,4(1H,3H)-dione]
6 |  |  | < 1 | < 6 | C[C@H](NP(=O)(OC[C@H]1O[C@@H](n2cc(F)c(=O)[nH]c2=O)C[C@@H]1O)Oc1cccc2ccccc12)C(=O)OCc1ccccc1 (stereo partly shown) [NUC-3373, reference compound]

Continued, molecule first:

Row | SMILES | concentration at 1 h [1] [ng/mL] | concentration at 1 h [2] [ng/g] | concentration at 1 h [3] [ng/mL] | concentration at 1 h [4] [ng/g]
7 | O=c1[nH]c(=O)n([C@H]2C[C@@H]3OP(=O)(OCc4ccc(Cl)cc4)OC[C@H]3O2)cc1F (single isomer, unassigned) [Compound 127] | 7.81 | < 6 |  | 
8 | CCOCOC1[C@@H](O)[C@H](n2cc(F)c(=O)n(COCC)c2=O)O[C@@H]1C (stereo in doubt) [Compound 109, 1-((2R,3R,4R,5R)-4-(Ethoxymethoxy)-3-hydroxy-5-methyltetrahydrofuran-2-yl)-3-(ethoxymethyl)-5-fluoropyrimidine-2,4(1H,3H)-dione] | 83.9 | 373 |  | 
9 | CCCCCOC(=O)Nc1nc(=O)n([C@@H]2O[C@H](C)[C@@H](O)[C@H]2O)cc1F [Capecitabine, reference compound] |  |  | 88.4 | 44.7
10 | C[C@H]1O[C@@H](n2cc(F)c(=O)[nH]c2=O)[C@@H]2OC(c3ccc(O)cc3)O[C@@H]21 (stereo partly drawn) [Compound 116, 5-Fluoro-1-((3aR,4R,6R,6aR)-2-(4-hydroxyphenyl)-6-methyltetrahydrofuro[3,4-d][1,3]dioxol-4-yl)pyrimidine-2,4(1H,3H)-dione] | 1350 | 978 |  | 
11 | COc1ccc(C2O[C@@H]3[C@H](O2)[C@@H](C)O[C@H]3n2cc(F)c(=O)[nH]c2=O)cc1 (stereo partly drawn) [Compound 118, 5-Fluoro-1-((3aR,4R,6R,6aR)-2-(4-methoxyphenyl)-6-methyltetrahydrofuro[3,4-d][1,3]dioxol-4-yl)pyrimidine-2,4(1H,3H)-dione] | 3680 | 1220 |  | 
12 | O=c1[nH]c(=O)n([C@H]2C[C@@H]3OP(=O)(Oc4ccccc4)OC[C@H]3O2)cc1F (stereo partly drawn) [Compound 122, 5-Fluoro-1-((4aR,6R,7aS)-2-oxido-2-phenoxytetrahydro-4H-furo[3,2-d][1,3,2]dioxaphosphinin-6-yl)pyrimidine-2,4(1H,3H)-dione] | 301 | 1980 |  | 
13 | CCCCCCCCCOP1(=O)OC[C@H]2O[C@@H](n3cc(F)c(=O)[nH]c3=O)C[C@@H]2O1 (stereo partly drawn) [Compound 132, 5-Fluoro-1-((4aR,6R,7aS)-2-(nonyloxy)-2-oxidotetrahydro-4H-furo[3,2-d][1,3,2]dioxaphosphinin-6-yl)pyrimidine-2,4(1H,3H)-dione] | 59.9 | 1370 |  | 
14 | O=c1[nH]c(=O)n([C@H]2C[C@@H]3OP(=O)(OCc4ccccc4F)OC[C@H]3O2)cc1F (stereo partly drawn) [Compound 139, 1-((4aR,6R,7aS)-2-(2-Fluorobenzyloxy)-2-oxidotetrahydro-4H-furo[3,2-d][1,3,2]dioxaphosphinin-6-yl)-5-fluoropyrimidine-2,4(1H,3H)-dione] | 11.3 | < 6 |  | 
15 | CCc1ccc(COP2(=O)OC[C@H]3O[C@@H](n4cc(F)c(=O)[nH]c4=O)C[C@@H]3O2)cc1 (stereo partly drawn) [Compound 147, 1-((4aR,6R,7aS)-2-(4-Ethylbenzyloxy)-2-oxidotetrahydro-4H-furo[3,2-d][1,3,2]dioxaphosphinin-6-yl)-5-fluoropyrimidine-2,4(1H,3H)-dione] | < 1 | < 6 |  | 
16 | O=c1[nH]c(=O)n([C@H]2C[C@@H]3OP(=O)(OCc4ccc(C(F)(F)F)cc4)OC[C@H]3O2)cc1F (stereo partly drawn) [Compound 156, 5-Fluoro-1-((4aR,6R,7aS)-2-oxido-2-((4-(trifluoromethyl)benzyl)oxy)tetrahydro-4H-furo[3,2-d][1,3,2]dioxaphosphinin-6-yl)pyrimidine-2,4(1H,3H)-dione] | 3.66 | < 6 |  | 
17 | CCCCCCCOP1(=O)OC[C@H]2O[C@@H](n3cc(F)c(=O)[nH]c3=O)C[C@@H]2O1 (stereo partly drawn) [Compound 201, 5-Fluoro-1-((4aR,6R,7aS)-2-(heptyloxy)-2-oxidotetrahydro-4H-furo[3,2-d][1,3,2]dioxaphosphinin-6-yl)pyrimidine-2,4(1H,3H)-dione] |  |  | 109 | 1040
